Conditions: Liquid, X-ray view cell

c1ccccc1 [benzene]
Conditions	vapor or sublimation pressure [kPa]
378.35 K	205
401.25 K	366
421.85 K	572
437.45 K	778
460.35 K	1173
480.45 K	1622
500.15 K	2183
520.05 K	2877

— the NIST ThermoML archive (doi:10.1016/j.fluid.2016.07.004)
